Experiments:
Assay in all cases: Test B pre-/postemergence plant response
Assay type in all cases: in vivo
[1] = tested on: Italian ryegrass (Lolium multiflorum)
In short: (§1)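 Each species received compound formulated in non-phytotoxic solvent with surfactant, either at planting into a loam and sand blend or as a foliar spray once plants reached 2 to 18 cm in peat-based medium. Plants stayed in the greenhouse 13 to 15 days before visual evaluation against controls, scored 0 (no effect) to 100 (complete control).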

[2] = tested on: Surinam grass (Brachiaria decumbens)
In short: as §1

[3] = tested on: bermudagrass (Cynodon dactylon)
In short: as §1

[4] = tested on: blackgrass (Alopecurus myosuroides)
In short: as §1

[5] = tested on: cocklebur (Xanthium strumarium)
In short: as §1

[6] = tested on: corn (Zea mays)
In short: as §1

[7] = tested on: downy bromegrass (Bromus tectorum)
In short: as §1

[8] = tested on: green foxtail (Setaria viridis)
In short: as §1

[9] = tested on: kochia (Kochia scoparia); details: Postemergence
In short: as §1

[10] = tested on: lambsquarters (Chenopodium album)
In short: as §1

[11] = tested on: large crabgrass (Digitaria sanguinalis)
In short: as §1

[12] = tested on: pigweed (Amaranthus retroflexus)
In short: as §1

[13] = tested on: ragweed (common ragweed, Ambrosia elatior)
In short: as §1

[14] = tested on: soybean (Glycine max)
In short: as §1

[15] = tested on: velvetleaf (Abutilon theophrasti)
In short: as §1

[16] = tested on: wild oat (Avena fatua)
In short: as §1

[17] = tested on: yellow nutsedge (Cyperus esculentus)
In short: as §1

[18] = Postemergence, 31 g ai/ha, 0 to 100 scale (0 no effect, 100 complete control)
[19] = Postemergence, 250 g ai/ha, scale 0 to 100 (0 no effect, 100 complete control), 13 to 15 days
[20] = Postemergence, 62 g ai/ha, scale 0 to 100 (0 no effect, 100 complete control)
[21] = Preemergence, 31 g ai/ha, scale 0 to 100 (0 no effect, 100 complete control)
[22] = Preemergence, 62 g ai/ha, scale 0 to 100, 0 no effect, 100 complete control
[23] = Preemergence, 125 g ai/ha, scale 0 to 100, 0 no effect, 100 complete control
[24] = Preemergence, 250 g ai/ha, 0 to 100 scale
[25] = Postemergence, 125 g ai/ha, scale 0 to 100 (0 no effect, 100 complete control)
[26] = 31 g ai/ha, 0 to 100 scale (0 no effect, 100 complete control)
[27] = 125 g ai/ha, scale 0 to 100 (0 no effect, 100 complete control)
[28] = 250 g ai/ha, scale 0 to 100 (0 no effect, 100 complete control), 13 to 15 days
[29] = 62 g ai/ha, scale 0 to 100 (0 no effect, 100 complete control)

CCc1cccc(-n2c(-c3ccccc3)ncc(C(=O)C3=C(O)CCCC3=O)c2=O)c1 [Compound 220]
Plant response rating, Ryegrass, Italian [1, 18]: 5 | Plant response rating, Ryegrass, Italian [1, 19]: 60 | Plant response rating, Ryegrass, Italian [1, 20]: 5 | Plant response rating, Ryegrass, Italian [1, 21]: 0 | Plant response rating, Ryegrass, Italian [1, 22]: 0 | Plant response rating, Ryegrass, Italian [1, 23]: 0 | Ryegrass, Italian plant response rating [1, 24]: 0 | Plant response rating, Surinam Grass [2, 18]: 50 | Plant response rating, Surinam Grass [2, 19]: 75 | Plant response rating, Surinam Grass [2, 20]: 60 | Plant response rating, Surinam Grass [2, 21]: 10 | Plant response rating, Surinam Grass [2, 22]: 20 | Plant response rating, Surinam Grass [2, 23]: 45 | Surinam Grass plant response rating [2, 24]: 65 | Plant response rating, Bermudagrass [3, 18]: 80 | Plant response rating, Bermudagrass [3, 25]: 98 | Plant response rating, Bermudagrass [3, 19]: 100 | Plant response rating, Bermudagrass [3, 20]: 95 | Plant response rating, Bermudagrass [3, 21]: 80 | Plant response rating, Bermudagrass [3, 22]: 98 | Plant response rating, Bermudagrass [3, 23]: 98 | Bermudagrass plant response rating ([3]; Preemergence, 250 g ai/ha, 0 to 100 scale, 0 no effect, 100 complete control): 100 | Plant response rating, Blackgrass [4, 18]: 10 | Plant response rating, Blackgrass [4, 25]: 30 | Plant response rating, Blackgrass [4, 19]: 40 | Plant response rating, Blackgrass [4, 20]: 20 | Plant response rating, Blackgrass [4, 21]: 10 | Plant response rating, Blackgrass [4, 22]: 20 | Plant response rating, Blackgrass [4, 23]: 20 | Blackgrass plant response rating [4, 24]: 35 | Plant response rating, Cocklebur [5, 21]: 0 | Plant response rating, Cocklebur [5, 22]: 0 | Cocklebur plant response rating [5, 24]: 0 | Plant response rating, Corn [6, 18]: 25 | Plant response rating, Corn [6, 25]: 55 | Plant response rating, Corn [6, 19]: 75 | Plant response rating, Corn [6, 20]: 50 | Plant response rating, Corn [6, 21]: 0 | Plant response rating, Corn [6, 22]: 0 | Plant response rating, Corn [6, 23]: 0 | Corn plant response rating [6, 24]: 0 | Plant response rating, Bromegrass, Downy [7, 18]: 10 | Plant response rating, Bromegrass, Downy [7, 25]: 15 | Plant response rating, Bromegrass, Downy [7, 19]: 30 | Plant response rating, Bromegrass, Downy [7, 20]: 10 | Plant response rating, Bromegrass, Downy [7, 21]: 0 | Plant response rating, Bromegrass, Downy [7, 22]: 0 | Plant response rating, Bromegrass, Downy [7, 23]: 0 | Bromegrass, Downy plant response rating [7, 24]: 5 | Plant response rating, Foxtail, Green [8, 18]: 60 | Plant response rating, Foxtail, Green [8, 25]: 80 | Plant response rating, Foxtail, Green [8, 19]: 90 | Plant response rating, Foxtail, Green [8, 20]: 65 | Plant response rating, Foxtail, Green [8, 21]: 80 | Plant response rating, Foxtail, Green [8, 22]: 90 | Foxtail, Green plant response rating [8, 24]: 100 | Plant response rating, Kochia [9, 26]: 45 | Plant response rating, Kochia [9, 27]: 75 | Plant response rating, Kochia [9, 28]: 100 | Plant response rating, Kochia [9, 29]: 65 | Plant response rating, Lambsquarters [10, 18]: 100 | Plant response rating, Lambsquarters [10, 25]: 100 | Plant response rating, Lambsquarters [10, 19]: 100 | Plant response rating, Lambsquarters [10, 20]: 100 | Plant response rating, Lambsquarters [10, 21]: 100 | Plant response rating, Lambsquarters [10, 22]: 100 | Plant response rating, Lambsquarters [10, 23]: 100 | Lambsquarters plant response rating [10, 24]: 100 | Plant response rating, Crabgrass, Large [11, 18]: 70 | Plant response rating, Crabgrass, Large [11, 25]: 85 | Plant response rating, Crabgrass, Large [11, 19]: 90 | Plant response rating, Crabgrass, Large [11, 20]: 75 | Plant response rating, Crabgrass, Large [11, 21]: 0 | Plant response rating, Crabgrass, Large [11, 22]: 75 | Plant response rating, Crabgrass, Large [11, 23]: 80 | Crabgrass, Large plant response rating [11, 24]: 100 | Plant response rating, Pigweed [12, 18]: 95 | Plant response rating, Pigweed [12, 19]: 100 | Plant response rating, Pigweed [12, 20]: 100 | Plant response rating, Pigweed [12, 21]: 100 | Plant response rating, Pigweed [12, 22]: 100 | Plant response rating, Pigweed [12, 23]: 100 | Pigweed plant response rating [12, 24]: 100 | Plant response rating, Ragweed [13, 18]: 90 | Plant response rating, Ragweed [13, 19]: 98 | Plant response rating, Ragweed [13, 20]: 95 | Plant response rating, Ragweed [13, 21]: 15 | Plant response rating, Ragweed [13, 22]: 60 | Plant response rating, Ragweed [13, 23]: 80 | Ragweed plant response rating [13, 24]: 95 | Plant response rating, Soybean [14, 18]: 80 | Plant response rating, Soybean [14, 19]: 100 | Plant response rating, Soybean [14, 20]: 85 | Plant response rating, Soybean [14, 22]: 0 | Plant response rating, Soybean [14, 23]: 0 | Soybean plant response rating [14, 24]: 75 | Plant response rating, Velvetleaf [15, 18]: 80 | Plant response rating, Velvetleaf [15, 19]: 100 | Plant response rating, Velvetleaf [15, 20]: 90 | Plant response rating, Velvetleaf [15, 21]: 45 | Plant response rating, Velvetleaf [15, 22]: 70 | Plant response rating, Velvetleaf [15, 23]: 90 | Velvetleaf plant response rating [15, 24]: 100 | Plant response rating, Oat, Wild [16, 18]: 10 | Plant response rating, Oat, Wild [16, 19]: 50 | Plant response rating, Oat, Wild [16, 20]: 20 | Plant response rating, Oat, Wild [16, 22]: 0 | Plant response rating, Oat, Wild [16, 23]: 0 | Oat, Wild plant response rating [16, 24]: 60 | Plant response rating, Nutsedge, Yellow [17, 18]: 10 | Plant response rating, Nutsedge, Yellow [17, 25]: 25 | Plant response rating, Nutsedge, Yellow [17, 19]: 55 | Plant response rating, Nutsedge, Yellow [17, 20]: 25 | Plant response rating, Nutsedge, Yellow [17, 21]: 0 | Plant response rating, Nutsedge, Yellow [17, 22]: 0 | Plant response rating, Nutsedge, Yellow [17, 23]: 60 | Nutsedge, Yellow plant response rating [17, 24]: 90

CCCn1c(-c2ccccc2)ncc(C(=O)C2=C(O)C3CCC(C3)C2=O)c1=O (stereo not shown) [Compound 226]
Plant response rating, Ryegrass, Italian [1, 18]: 0 | Plant response rating, Ryegrass, Italian [1, 19]: 20 | Plant response rating, Ryegrass, Italian [1, 20]: 0 | Plant response rating, Surinam Grass [2, 18]: 75 | Plant response rating, Surinam Grass [2, 19]: 85 | Plant response rating, Surinam Grass [2, 20]: 75 | Plant response rating, Bermudagrass [3, 18]: 80 | Plant response rating, Bermudagrass [3, 25]: 85 | Plant response rating, Bermudagrass [3, 19]: 98 | Plant response rating, Bermudagrass [3, 20]: 80 | Plant response rating, Blackgrass [4, 18]: 5 | Plant response rating, Blackgrass [4, 25]: 40 | Plant response rating, Blackgrass [4, 19]: 60 | Plant response rating, Blackgrass [4, 20]: 30 | Plant response rating, Cocklebur [5, 18]: 98 | Plant response rating, Cocklebur [5, 25]: 100 | Plant response rating, Cocklebur [5, 19]: 100 | Plant response rating, Cocklebur [5, 20]: 98 | Plant response rating, Corn [6, 18]: 75 | Plant response rating, Corn [6, 25]: 98 | Plant response rating, Corn [6, 19]: 98 | Plant response rating, Corn [6, 20]: 80 | Plant response rating, Bromegrass, Downy [7, 18]: 0 | Plant response rating, Bromegrass, Downy [7, 25]: 5 | Plant response rating, Bromegrass, Downy [7, 19]: 30 | Plant response rating, Bromegrass, Downy [7, 20]: 0 | Plant response rating, Foxtail, Green [8, 18]: 70 | Plant response rating, Foxtail, Green [8, 25]: 90 | Plant response rating, Foxtail, Green [8, 19]: 90 | Plant response rating, Foxtail, Green [8, 20]: 80 | Plant response rating, Kochia [9, 26]: 80 | Plant response rating, Kochia [9, 27]: 100 | Plant response rating, Kochia [9, 28]: 100 | Plant response rating, Kochia [9, 29]: 85 | Plant response rating, Lambsquarters [10, 18]: 90 | Plant response rating, Lambsquarters [10, 25]: 95 | Plant response rating, Lambsquarters [10, 19]: 98 | Plant response rating, Lambsquarters [10, 20]: 90 | Plant response rating, Crabgrass, Large [11, 18]: 85 | Plant response rating, Crabgrass, Large [11, 25]: 95 | Plant response rating, Crabgrass, Large [11, 19]: 98 | Plant response rating, Crabgrass, Large [11, 20]: 85 | Plant response rating, Pigweed [12, 18]: 75 | Plant response rating, Pigweed [12, 19]: 98 | Plant response rating, Pigweed [12, 20]: 85 | Plant response rating, Ragweed [13, 18]: 80 | Plant response rating, Ragweed [13, 19]: 90 | Plant response rating, Ragweed [13, 20]: 85 | Plant response rating, Soybean [14, 18]: 95 | Plant response rating, Soybean [14, 19]: 100 | Plant response rating, Soybean [14, 20]: 98 | Plant response rating, Velvetleaf [15, 18]: 85 | Plant response rating, Velvetleaf [15, 19]: 98 | Plant response rating, Velvetleaf [15, 20]: 85 | Plant response rating, Oat, Wild [16, 18]: 25 | Plant response rating, Oat, Wild [16, 19]: 50 | Plant response rating, Oat, Wild [16, 20]: 30 | Plant response rating, Nutsedge, Yellow [17, 18]: 55 | Plant response rating, Nutsedge, Yellow [17, 25]: 70 | Plant response rating, Nutsedge, Yellow [17, 19]: 75 | Plant response rating, Nutsedge, Yellow [17, 20]: 65

Source: US8952024B2, “Herbicidal pyrimidone derivatives” (E I du Pont de Nemours and Company, priority 2009, dated 2015)
